Results on 20 compounds are retold here after US4572909A, “2-(Secondary aminoalkoxymethyl) dihydropyridine derivatives as anti-ischaemic and antihypertensive agents” (Pfizer Inc., priority 1982, dated 1986).

Counter-ions that a name gives are not always drawn. Like-named read-outs stand apart in the source and are kept apart here.

The subject of this assay is rat aorta. Briefly: reduction of calcium-induced contraction (response to calcium chloride) of spirally cut strips of rat aorta in vitro. Type of assay: cell-based. Here is the method: The ability of the compounds to inhibit the movement of calcium into the cell is shown by their effectiveness in reducing the response of isolated […] to an increase in calcium ion concentration in vitro. The test is performed by mounting spirally cut strips of rat aorta with one end fixed and the other attached to a force transducer. The tissue is immersed in a bath of physiological saline solution containing potassium ions at a concentration of 45 millimolar and no calcium. Calcium chloride is added to the bath with a pipette to give a final calcium ion concentration of 2 millimolar. The change in tension caused by the resulting contraction of the tissue is noted. The bath is drained and replaced with fresh saline solution and, after 45 minutes, the test is repeated with the particular compound under test present in the saline solution. The concentration of compound required to reduce the response by 50% is recorded.

Where [1] appears, read: 0.75 h; isolated rat aorta strips; 45 millimolar potassium; 2 millimolar calcium; retest after 45 minutes with compound; read-out: molar concentration of the compounds required to reduce the response by 50% (IC50).
The mark [2] stands for this setting: isolated rat aorta strips; 45 millimolar potassium; 2 millimolar calcium; retest after 45 minutes with compound; read-out: molar concentration of the compounds required to reduce the response by 50% (IC50).
The mark [3] stands for this setting: ranking among the tested Examples.
Setting [4] is: read-out: molar concentration of the compounds required to reduce the response by 50% (IC50); isolated rat aorta strips; 45 millimolar potassium; 2 millimolar calcium; retest after 45 minutes with compound.

`CCOC(=O)C1=C(COCCNCC(=O)NC)NC(C)=C(C(=O)OC)C1c1ccccc1Cl` (stereo not drawn) [Example 20]: the IC50 under setting [1] stood at 22 nM. Take `CCOC(=O)C1=C(COCCN)NC(C)=C(C(=O)OC)C1c1ccccc1F` (stereo not drawn) [Example 15]: the IC50 under setting [1] came out at 18 nM. With `CCOC(=O)C1=C(COCCNC)NC(C)=C(C(=O)OC)C1c1ccccc1Cl.O=C(O)/C=C\C(=O)O` (stereo not drawn) [Example 24, 4-(2-chlorophenyl)-2-[2-(N-methylamino)ethoxymethyl]-3-ethoxycarbonyl-5-methoxycarbonyl-6-methyl-1,4-dihydropyridine maleate], the IC50 under setting [2] was 3.2 nM. In addition, the “activity ranking by IC50 (the smaller the concentration the more active the compound)” value (“activity ranking by IC50” below) under setting [3] is listed as “most active compounds”. As for `CCOC(=O)C1=C(COCCNC)NC(C)=C(C(=O)OC)C1c1cccc(Cl)c1` (stereo not drawn) [Example 5], the IC50 under setting [1] amounted to 40 nM. For `CCOC(=O)C1=C(COCCNC)NC(C)=C(C(=O)OC)C1c1ccccc1` (stereo not drawn) [Example 2], the IC50 under setting [1] was 32 nM. Regarding `CCOC(=O)C1=C(COCCNC)NC(C)=C(C(=O)OC)C1c1ccccc1Cl.O=C(O)/C=C\C(=O)O` (stereo not drawn) [Example 23, 4-(2-Chlorophenyl)-2-[2-(N-methylamino)ethoxymethyl]-3-ethoxycarbonyl-5-methoxycarbonyl-6-methyl-1,4-dihydropyridine maleate], the IC50 under setting [2] is 3.2 nM. The “activity ranking by IC50” value under setting [3] was “most active compounds”.

With `CCOC(=O)C1=C(COCCN)NC(C)=C(C(=O)OC)C1c1cccc(Cl)c1Cl` (stereo not drawn) [Example 13], the IC50 under setting [1] was found to be 6.3 nM. As to `CCOC(=O)C1=C(COCCNC)NC(C)=C(C(=O)OC)C1c1ccccc1OC` (stereo not drawn) [Example 4], under setting [1], the IC50 worked out at 63 nM. In the case of `CCOC(=O)C1=C(COCCN)NC(C)=C(C(=O)OC)C1c1ccccc1` (stereo not drawn) [Example 14], the IC50 under setting [1] was determined as 160 nM.

As to `CCOC(=O)C1=C(COCCN)NC(C)=C(C(=O)OC)C1c1ccccc1Cl.O=C(O)/C=C\C(=O)O` (stereo not drawn) [Example 11, 2-[(2-aminoethoxy)methyl]-4-(2-chlorophenyl)-3-ethoxycarbonyl-5-methoxycarbonyl-6-methyl-1,4-dihydropyridine maleate], under setting [3], the “activity ranking by IC50” value is “most active compounds”. Also, under setting [4], the IC50 came out at 3.2 nM. As for `CCOC(=O)C1=C(COCCNC)NC(C)=C(C(=O)OC)C1c1ccccc1F` (stereo not drawn) [Example 3], the IC50 under setting [1] was determined as 20 nM. On to `CCOC(=O)C1=C(COCCN)NC(C)=C(C(=O)OC)C1c1ccccc1Cl.O=C(O)/C=C\C(=O)O` (stereo not drawn) [Example 22, 2-[(2-aminoethoxy)methyl]-4-(2-chlorophenyl)-3-ethoxycarbonyl-5-methoxycarbonyl-6-methyl-1,4-dihydropyridine maleate], for which the “activity ranking by IC50” value under setting [3] was “most active compounds”. Also, under setting [4], the IC50 came to 3.2 nM. `CCOC(=O)C1=C(COCCN)NC(C)=C(C(=O)OC)C1c1ccccc1Cl` (stereo not drawn) [Example 12, 2-[2-aminoethoxy)methyl]-4-(2-chlorophenyl)-3-ethoxycarbonyl-5-methoxycarbonyl-6-methyl-1,4-dihydropyridine maleate]: the IC50 under setting [2] amounted to 3.2 nM. Besides, the “activity ranking by IC50” value under setting [3] was “most active compounds”.

As for `CCOC(=O)C1=C(COCCNCCOC)NC(C)=C(C(=O)OC)C1c1ccccc1Cl` (stereo not drawn) [Example 10], the IC50 under setting [1] was 25 nM. The same measure, in the same setting: the same measure for `CCOC(=O)C1=C(COCCNCC(N)=O)NC(C)=C(C(=O)OC)C1c1ccccc1Cl` (stereo not drawn) [Example 19, 2-(2-{[4-(2-Chlorophenyl)-3-ethoxycarbonyl-5-methoxycarbonyl-6-methyl-1,4-dihydropyrid-2-yl]methoxy}ethylamino)acetamide]: 4 nM. For `CCOC(=O)C1=C(COCCN)NC(C)=C(C(=O)OC)C1c1ccccc1Cl` (stereo not drawn) [Example 9], the IC50 under setting [1] was found to be 3.2 nM. Also, the “activity ranking by IC50” value under setting [3] is recorded as “most active compounds”. Turning to `CCOC(=O)C1=C(COCCNCc2ccccc2)NC(C)=C(C(=O)OC)C1c1ccccc1Cl` (stereo not drawn) [Example 8], the IC50 under setting [1] worked out at 50 nM. As to `CCOC(=O)C1=C(COCCNC)NC(C)=C(C(=O)OC)C1c1ccccc1Cl.O=C(O)C(=O)O` (stereo not drawn) [Example 1, 4-(2-chlorophenyl)-2-[2-(methylamino)ethoxymethyl]-3-ethoxycarbonyl-5-methoxycarbonyl-6-methyl-1,4-dihydropyridine, oxalate salt], the IC50 under setting [1] came to 3.2 nM. For the same compound, the “activity ranking by IC50” value under setting [3] is listed as “most active compounds”. Take `CCOC(=O)C1=C(COCCNC)NC(C)=C(C(=O)OC)C1c1cccc(O)c1Cl` (stereo not drawn) [Example 6]: under setting [1], the IC50 amounted to 200 nM.

Consider `CCOC(=O)C1=C(COCCNC)NC(C)=C(C(=O)OC)C1c1c(F)cccc1Cl` (stereo not drawn) [Example 7], for which, under setting [1], the IC50 is 13 nM.
